Experimental data published in patent publication US20220241314A1, “COMPOSITIONS AND METHODS FOR TREATMENT OF HEPATITIS B VIRUS INFECTION” (priority 2019, published 2022).
{ppp} = triphosphate

What was measured:
HBV cccDNA [1] = assay: Time-of-addition experiments on cccDNA synthesis; type: cell-based, HBV (Genotype D); conditions: for HBV cccDNA level: HepG2-hNTCP and dHepaRG
Experimental: FIGS. 3A-3F illustrate that F7 and poly-U/UC PAMP suppress de novo HBV cccDNA synthesis. (3A) Upper: Infection and poly-U/UC PAMP treatment schedule. Cells were treated with 100 ng/ml of poly-U/UC PAMP either for 24 hours before (Pre), for 48 hours after HBV infection (Post), or for 72 hours (pre/post). At 3 dpi cells were harvested and Hirt extracts were prepared (3B) HepG2-hNTCP cells and (3C) dHepaRG cells were analyzed by Southern blot (upper) and RT-qPCR (lower). For RT-qPCR. anal sis, values from DMSO treated control were set to 100% respectively, and data are shown as mean±standard deviations (SD) percentage of cccDNA in control samples. ***P<0.005, and ns=non-significant. (3D) HBV infection and F7 treatment schedule. Cells were treated with F7 (10 μM) either for 24 hours before (Pre), 24 hours during the time of infection (Co), d8 hours after infection (Post), or 96 hours pre/co/post). At 3 Dpi, the cells were harvested and. Hirt extracts prepared HepG2-hNTCP (3E) and dHepaRG cells (3F). Upper panels show Southern blot analysis. Lower panels show or RT-qPCR analysis and percent of cccDNA remaining in treated cells compared to control DMS)-treated cells. Values from DMSO-treated control cultures were set to 100%. Data was presented as mean±standard deviations (SD), *P<0.01, **P<0.005, ***P<0.001, ****P<0.0001 and ns=non-significant. CsA served as a treatment control. For Southern blots the position of mass markers are indicated.
To further define inhibitory effect of F7 and poly-U/UC on cccDNA biosynthesis, time-of-addition experiments were conducted in HepG2-hNTCP and dHepaRG cells. For poly-U/UC PAMP, treatment for 24 hours pre-infection (pre-treatment), from 1 to 3 dpi (post-treatment), and from 24 hours pre-infection onward through 3 dpi (pre/post-treatment) were conducted (FIG. 3A). […]

HBV cccDNA [2] = assay: cccDNA levels in HBV-infected RIG-I or MDA5 knockout HepG2-hNTCP cells (Southern blot); type: cell-based, HBV (Genotype D); conditions: HepG2-hNTCP-NT and HepG2-hNTCP-MKO cells, single treatment at 1 dpi, harvested 3 dpi
Experimental: FIGS. 6A-6D illustrate that F7 and poly-U/UC PAMP specifically signal IRF3 activation through RIG-I to suppress HBV cccDNA. (6A) F7 was administered for 24 hours to HepG2-hNTCP-NT (expressing non-targeting guide RNA), RKO (RIG-I knockout expressing RIG-I-targeting guide RNA), and MKO (MDA5-knock out expressing MDA5-targeting guide RNA). Cells were harvested and analyzed by immunoblot. The levels of protein expression by p-IRF3 (S386 phosphorylated, active IRF3), IRF3 (total IRF), IFIT1, RIG-I, and MDA5 relative to the expression level of tubulin were determined using respective antibodies. (6B) HepG2-hNTCP-NT, RKO, and MKO cells were treated with 100 ng,/ml of X-RNA or 100 ng/ml or 200 ng/ml of poly-U/UC PAMP for 24 hr. Cells were harvested and analyzed by immunoblot as in (6A). (6C and 6D) Cells were infected with HBV at moi of 1000 Geq/cell. After 24 hour cultures were treated with DMSO (−; negative control), CsA (treatment control), (6C) 10 μM) or F7 or (6D) X RNA or poly-U/UC PAMP. Three days later the cells were harvested, Hirt extracts prepared and subjected to Southern blot analysis using as HBV-DNA probe. The positions of mass markers are indicated. Values beneath each lane show percent cccDNA remaining compared to control treatment. […]

Molecule: O=C(Nc1ccc2nc(NC(=O)c3ccc4ccccc4c3)sc2c1)c1ccccc1 [F7, N-(6-benzamido-1,3-benzothiazol-2-yl)naphthalene-2-carboxamide]
- HBV cccDNA level (HBV cccDNA [1]; F7 10 μM administered once pre or co-treatment, 3 dpi): little effect on HBV cccDNA level
- HBV cccDNA level (HBV cccDNA [1]; F7 10 μM administered post-infection or pre/co/post through 3 dpi): significant suppression of cccDNA levels
- cccDNA levels (HBV cccDNA [2]): reduced cccDNA levels

B1: poly-U/UC PAMP: ~100 nt PAMP motif from the HCV genome comprising 5′ppp and the poly U/UC region, recognized by RIG-I; formulated in liposome (nucleic acid)
chain: GGCCAUCCUGUUUUUUUCCCUUUUUUUUUUUCUUUUUUUUUUUUUUUUUUUUUUUUUUUUUUUUUUCUCCUUUUUUUUUCCUCUUUUUUUCCUUUUCUUUCCUUU
modifications: RNA, 5' {ppp}, backbone and methylation of C not given here; formulated in liposome
notes: ~100 nt PAMP motif from the HCV genome comprising 5′ppp and the poly U/UC region, recognized by RIG-I; formulated in liposome
- synthesis of cccDNA (HBV cccDNA [1]; poly-U/UC PAMP 100 ng/ml pre-, post- and pre/post-treatment, HepG2-hNTCP and HepaRG cells, 3 dpi): uniformly significantly suppressed
- cccDNA levels (HBV cccDNA [2]): cccDNA was suppressed
